The test system of assay [1] is precocious branches of Eucalyptus camaldulensis. The experiment in a line: Transgenic calli formation with varied NAA concentration in infection medium and sterilization medium. It is filed as cell-based. The note with it: 4-PU 0.2 mg/l. Here is the method:
After cutting the precocious branches subjected to the infection induction treatment to segments of 2 to 10 mm length with a knife, the segments were immersed in the culture medium of Agrobacterium tumefaciens strain EHA101/pIG121-Hm prepared according to the method described above. After wiping off the culture medium adhered to the segments of the precocious branches with filter paper, the sections of the precocious branches were embedded in an infection medium containing 2 mg/l NAA, 0.2 mg/l 4-PU, 1 mM galactose, 10 μM acetosyringone, 3% sucrose and 0.02% gellan gum in B5 basal medium, followed by stationary-culturing for 2 days at a temperature of 26° C. and under dark conditions to infect the precocious branches with Agrobacterium tumefaciens. The explant segments treated as described above were transplanted to a sterilization medium containing 2 mg/l NAA, 0.2 mg/l 4-PU or 4CPPU, 3% sucrose, and 500 mg/l of carbenicillin as antibiotic for sterilizing Agrobacterium attached to the explant segments, and were vertical-rotary-cultured for 7 - days at a temperature of 26° C. and rotating speed of 2 rpm under dark conditions to sterilize the Agrobacterium tumefaciens. With the exception of inducing precocious branches from a different plant of Eucalyptus camaldulensis, and the NAA concentrations used in the infection medium and sterilization medium, the precocious branches were infected with agrobacterium tumefaciens strain EHA101/pIG121-Hm in the same manner as described in Example 1 to produce transgenic calli.

The test system is the same in assay [2]. The experiment in a line: Transgenic calli formation after infection induction treatment of precocious branches with NAA, then Agrobacterium tumefaciens EHA101/pIG121-Hm infection. It is filed as cell-based. The note with it: 30 days. Here is the method: Culturing was performed for 7 to 14 days at a temperature of 26 to 28° C. under dark conditions. After cutting the precocious branches subjected to the infection induction treatment to segments of 2 to 10 mm length with a knife, the segments were immersed in the culture medium of Agrobacterium tumefaciens strain EHA101/pIG121-Hm prepared according to the method described above. After wiping off the culture medium adhered to the segments of the precocious branches with filter paper, the sections of the precocious branches were embedded in an infection medium containing 2 mg/l NAA, 0.2 mg/l 4-PU, 1 mM galactose, 10 μM acetosyringone, 3% sucrose and 0.02% gellan gum in B5 basal medium, followed by stationary-culturing for 2 days at a temperature of 26° C. and under dark conditions to infect the precocious branches with Agrobacterium tumefaciens. With the exception of inducing precocious branches from three Eucalyptus camaldulensis plants, and performing infection induction treatment with the concentration of NAA in the precocious branch infection induction medium at 0, 0.02, 0.2 or 2.0 mg/l, the precocious branches were infected with Agrobacterium tumefaciens strain EHA101/pIG121-Hm in the same manner as described in Example 1, and the number of transgenic calli that express intron GUS gene was investigated 30 days after the start of the infection induction treatment. For plant 1, the case of testing precocious branches of the untreated group on which infection treatment was not performed, transformation efficiency of 23.1% was obtained. […] In addition, in the untreated group of plant 2 as well in which infection was difficult, transgenic calli were observed following infection induction by NAA. One the basis of these findings, infection induction treatment of precocious branches was clearly shown to be effective in improving transformation efficiency.

Values joined by “and” are separate entries in the source; they are usually repeats but may differ in a detail not shown here. Equal values may be shown once.

In the case of `O=C(O)Cc1cccc2ccccc12` [NAA, naphthaleneacetic acid], the Transformation efficiency stood at 14% in assay [1] (infection medium NAA 0.02 mg/l, sterilization medium NAA 0.02 mg/l); 4% in assay [1] (infection medium NAA 0.02 mg/l, sterilization medium NAA 2 mg/l); 11% in assay [1] (infection medium NAA 2 mg/l, sterilization medium NAA 0.02 mg/l); 42% in assay [1] (infection medium NAA 2 mg/l, sterilization medium NAA 2 mg/l). The “Transformation efficiency = No. of transgenic calli/No. of tested segments × 100” value is 72.9% and 73% in assay [2] (plant No. 1, NAA 0.02 mg/l in infection induction medium); 64% in assay [2] (plant No. 1, NAA 0.2 mg/l in infection induction medium); 49% in assay [2] (plant No. 1, NAA 2.0 mg/l in infection induction medium); 8% in assay [2] (plant No. 2, NAA 0.02 mg/l in infection induction medium); 31% in assay [2] (plant No. 2, NAA 0.2 mg/l in infection induction medium); 19% in assay [2] (plant No. 2, NAA 2.0 mg/l in infection induction medium). For the same compound, the “Transformation efficiency = No. of transgenic calli/No. of tested segments × 100” value in assay [2] (plant No. 3, NAA 0.02 mg/l in infection induction medium) is listed as 69%; in assay [2] (plant No. 3, NAA 0.2 mg/l in infection induction medium), 38%; in assay [2] (plant No. 3, NAA 2.0 mg/l in infection induction medium), 59%.
